According to ChEMBL document CHEMBL1145244, “In vitro advanced antimycobacterial screening of isoniazid-related hydrazones, hydrazides and cyanoboranes: part 14” (2005):
Converted amounts (≈) assume the structure as drawn.

Tests used:
Format in all cases: functional
[1] = tested on: Mycobacterium tuberculosis; test: In vitro antimycobacterial activity against isoniazid-resistant Mycobacterium tuberculosis strain
[2] = tested on: Mycobacterium tuberculosis; test: In vitro antimycobacterial activity against ethambutol-resistant Mycobacterium tuberculosis strain
[3] = tested on: Mycobacterium tuberculosis; test: In vitro antimycobacterial activity against ethionamide-resistant Mycobacterium tuberculosis strain
[4] = tested on: Mycobacterium tuberculosis; test: In vitro antimycobacterial activity against thiacetazone resistant Mycobacterium tuberculosis strain
[5] = tested on: Mycobacterium tuberculosis; test: In vitro antimycobacterial activity against rifampin-resistant Mycobacterium tuberculosis strain
[6] = tested on: Mycobacterium tuberculosis; test: Minimum inhibitory concentration against isoniazid-resistant Mycobacterium tuberculosis strain

N#CC[n+]1ccc(C(=O)NNCC(F)(F)F)cc1
MBC [1]: > 25 µg/mL | MIC [1]: > 25 µg/mL | MIC [2]: 12.5 µg/mL | MIC [3]: > 25 µg/mL | MIC [4]: > 25 µg/mL | MBC [5]: 6.25 µg/mL | MIC [5]: 12.5 µg/mL

C/C=N/NC(=O)c1ccncc1
MBC [1]: > 0.75 µg/mL | MIC [1]: > 0.75 µg/mL | MIC [2]: 0.025 µg/mL (≈ 0.153 µM) | MIC [3]: 0.375 µg/mL (≈ 2.3 µM) | MIC [4]: > 0.75 µg/mL | MBC [5]: 0.05 µg/mL (≈ 0.306 µM) | MIC [5]: 0.05 µg/mL (≈ 0.306 µM)

C/C(=N\NC(=O)c1ccncc1)c1cccc(/C(C)=N/NC(=O)c2ccncc2)n1
MBC [1]: 12.5 µg/mL (≈ 31.1 µM) | MIC [1]: > 12.5 µg/mL | MIC [2]: ≤ 0.2 µg/mL | MIC [3]: > 12.5 µg/mL | MIC [4]: > 12.5 µg/mL | MBC [5]: 6.25 µg/mL (≈ 15.6 µM) | MIC [5]: ≤ 0.2 µg/mL

NNC(=O)c1ccncc1 [ISONIAZID]
MBC [1]: > 1.6 µg/mL | MIC [6]: > 0.2 µg/mL

O=C(N/N=C/c1ccc(C(F)(F)F)cc1)c1ccncc1
MBC [1]: > 1.6 µg/mL | MIC [1]: > 1.6 µg/mL | MIC [2]: 0.2 µg/mL (≈ 0.682 µM) | MIC [3]: 1.6 µg/mL (≈ 5.46 µM) | MIC [4]: > 1.6 µg/mL | MBC [5]: 0.4 µg/mL (≈ 1.36 µM) | MIC [5]: 0.2 µg/mL (≈ 0.682 µM)

N#CC[n+]1ccc(C(=O)NNCc2ccccc2)cc1
MBC [1]: > 25 µg/mL | MIC [1]: > 25 µg/mL | MIC [2]: 6.25 µg/mL | MIC [3]: > 25 µg/mL | MIC [4]: > 25 µg/mL

C/C(=N\NC(=O)c1ccncc1)C(F)(F)F
MBC [1]: > 1.6 µg/mL | MIC [1]: > 1.6 µg/mL | MIC [2]: 0.2 µg/mL (≈ 0.865 µM) | MIC [3]: > 1.6 µg/mL | MIC [4]: > 1.6 µg/mL | MBC [5]: 0.2 µg/mL (≈ 0.865 µM) | MIC [5]: 0.2 µg/mL (≈ 0.865 µM)
